Activity calls are given as the source filed them.
Assays:
Assay type in all cases: functional, cell-based
TK-10 = assay: Growth inhibition of human TK10 cells at 10 uM after 48 hrs by sulforhodamine B assay
786-0 = assay: Growth inhibition of human 786-0 cells at 10 uM after 48 hrs by sulforhodamine B assay
MDA-MB-468 = assay: Growth inhibition of human MDA-MB-468 cells at 10 uM after 48 hrs by sulforhodamine B assay
ACHN = assay: Growth inhibition of human ACHN cells at 10 uM after 48 hrs by sulforhodamine B assay
MDA-MB-435 = assay: Growth inhibition of human MDA-MB-435 cells at 10 uM after 48 hrs by sulforhodamine B assay
A498 = assay: Growth inhibition of human A498 cells at 10 uM after 48 hrs by sulforhodamine B assay
SN12C = assay: Growth inhibition of human SN12C cells at 10 uM after 48 hrs by sulforhodamine B assay
U-251 = assay: Growth inhibition of human U251 cells at 10 uM after 48 hrs by sulforhodamine B assay
HOP-92 = assay: Growth inhibition of human HOP92 cells at 10 uM after 48 hrs by sulforhodamine B assay
MOLT-4 = assay: Growth inhibition of human MOLT4 cells at 10 uM after 48 hrs by sulforhodamine B assay
NCI-H460 = assay: Growth inhibition of human NCI-H460 cells at 10 uM after 48 hrs by sulforhodamine B assay
SK-MEL-5 = assay: Growth inhibition of human SK-MEL-5 cells at 10 uM after 48 hrs by sulforhodamine B assay
UACC-62 = assay: Growth inhibition of human UACC62 cells at 10 uM after 48 hrs by sulforhodamine B assay
LOX IMVI = assay: Growth inhibition of human LOXIMVI cells at 10 uM after 48 hrs by sulforhodamine B assay
PC-3 = assay: Growth inhibition of human PC3 cells at 10 uM after 48 hrs by sulforhodamine B assay
HCT-116 = assay: Growth inhibition of human HCT116 cells at 10 uM after 48 hrs by sulforhodamine B assay
NCI-H522 = assay: Growth inhibition of human NCI-H522 cells at 10 uM after 48 hrs by sulforhodamine B assay
M14 = assay: Growth inhibition of human M14 cells at 10 uM after 48 hrs by sulforhodamine B assay
MCF7 = assay: Growth inhibition of human MCF7 cells at 10 uM after 48 hrs by sulforhodamine B assay
RXF 393 = assay: Growth inhibition of human RXF393 cells at 10 uM after 48 hrs by sulforhodamine B assay
SF-295 = assay: Growth inhibition of human SF295 cells at 10 uM after 48 hrs by sulforhodamine B assay
UO-31 = assay: Growth inhibition of human UO31 cells at 10 uM after 48 hrs by sulforhodamine B assay
SF-539 = assay: Growth inhibition of human SF539 cells at 10 uM after 48 hrs by sulforhodamine B assay
SW-620 = assay: Growth inhibition of human SW620 cells at 10 uM after 48 hrs by sulforhodamine B assay
NCI-H23 = assay: Growth inhibition of human NCI-H23 cells at 10 uM after 48 hrs by sulforhodamine B assay
EKVX = assay: Growth inhibition of human EKVX cells at 10 uM after 48 hrs by sulforhodamine B assay
HOP-62 = assay: Growth inhibition of human HOP62 cells at 10 uM after 48 hrs by sulforhodamine B assay
DU-145 = assay: Growth inhibition of human DU145 cells at 10 uM after 48 hrs by sulforhodamine B assay
HCC 2998 = assay: Growth inhibition of human HCC2998 cells at 10 uM after 48 hrs by sulforhodamine B assay
NCI-H322M = assay: Growth inhibition of human NCI-H322M cells at 10 uM after 48 hrs by sulforhodamine B assay
SNB-75 = assay: Growth inhibition of human SNB75 cells at 10 uM after 48 hrs by sulforhodamine B assay
HL-60(TB) = assay: Growth inhibition of human HL-60(TB) cells at 10 uM after 48 hrs by sulforhodamine B assay
KM12 = assay: Growth inhibition of human KM12 cells at 10 uM after 48 hrs by sulforhodamine B assay
BT-549 = assay: Growth inhibition of human BT549 cells at 10 uM after 48 hrs by sulforhodamine B assay
CAKI-1 = assay: Growth inhibition of human CAKI-1 cells at 10 uM after 48 hrs by sulforhodamine B assay
SK-MEL-2 = assay: Growth inhibition of human SK-MEL-2 cells at 10 uM after 48 hrs by sulforhodamine B assay
SNB-19 = assay: Growth inhibition of human SNB19 cells at 10 uM after 48 hrs by sulforhodamine B assay
SK-MEL-28 = assay: Growth inhibition of human SK-MEL-28 cells at 10 uM after 48 hrs by sulforhodamine B assay
OVCAR-4 = assay: Growth inhibition of human OVCAR4 cells at 10 uM after 48 hrs by sulforhodamine B assay
OVCAR-5 = assay: Growth inhibition of human OVCAR5 cells at 10 uM after 48 hrs by sulforhodamine B assay
MDA-MB-231 = assay: Growth inhibition of human MDA-MB-231 cells at 10 uM after 48 hrs by sulforhodamine B assay
K562 = assay: Growth inhibition of human K562 cells at 10 uM after 48 hrs by sulforhodamine B assay
NCI/ADR-RES = assay: Growth inhibition of human NCI-ADR-RES cells at 10 uM after 48 hrs by sulforhodamine B assay
SF-268 = assay: Growth inhibition of human SF268 cells at 10 uM after 48 hrs by sulforhodamine B assay
SR = assay: Growth inhibition of human SR cells at 10 uM after 48 hrs by sulforhodamine B assay
RPMI-8226 = assay: Growth inhibition of human RPMI8226 cells at 10 uM after 48 hrs by sulforhodamine B assay
OVCAR-8 = assay: Growth inhibition of human OVCAR8 cells at 10 uM after 48 hrs by sulforhodamine B assay
COLO 205 = assay: Growth inhibition of human COLO205 cells at 10 uM after 48 hrs by sulforhodamine B assay
HT-29 = assay: Growth inhibition of human HT-29 cells at 10 uM after 48 hrs by sulforhodamine B assay
Hs-578T = assay: Growth inhibition of human Hs 578T cells at 10 uM after 48 hrs by sulforhodamine B assay
OVCAR-3 = assay: Growth inhibition of human OVCAR3 cells at 10 uM after 48 hrs by sulforhodamine B assay
Malme-3M = assay: Growth inhibition of human MALME-3M cells at 10 uM after 48 hrs by sulforhodamine B assay
SK-OV-3 = assay: Growth inhibition of human SKOV3 cells at 10 uM after 48 hrs by sulforhodamine B assay
NCI-H226 = assay: Growth inhibition of human NCI-H226 cells at 10 uM after 48 hrs by sulforhodamine B assay
HCT-15 = assay: Growth inhibition of human HCT15 cells at 10 uM after 48 hrs by sulforhodamine B assay
IGROV-1 = assay: Growth inhibition of human IGROV1 cells at 10 uM after 48 hrs by sulforhodamine B assay
A549 = assay: Growth inhibition of human A549/ATCC cells at 10 uM after 48 hrs by sulforhodamine B assay
T47D = assay: Growth inhibition of human T47D cells at 10 uM after 48 hrs by sulforhodamine B assay
CCRF-CEM = assay: Growth inhibition of human CCRF-CEM cells at 10 uM after 48 hrs by sulforhodamine B assay

Measured: growth inhibition (GI)

O=C1/C(=C\c2cccn2Cc2ccc(F)cc2)c2ccccc2N1c1c(Cl)cccc1Cl
inactive: all assays above
